Data taken from publication PMC11501026, “L-Arginine and asymmetric dimethylarginine (ADMA) transport across the mouse blood-brain and blood-CSF barriers: Evidence of saturable transport at both interfaces and CNS to blood efflux” (PLOS ONE, 2024).
Where “and” joins values, the source holds several entries; their conditions need not be identical. Identical values can stand only once. Counter-ions that a name gives are not always drawn. Like-named read-outs stand apart in the source and are kept apart here.

Key:
[1] = in situ brain/choroid plexus perfusion: CNS uptake of [^3H]-arginine, [^3H]-ADMA and [^14C]-sucrose (multiple-time and single-time uptake analysis); conditions: for Kp at […], 62.5 nM / Kp at 20 min, 62.5 nM / Kp at […] / Kp at 30 min, 62.5 nM / Kp at 10 min: male, BALB/c, mouse, 5ml/min; for Kp at […], 62.5 nM / Kp at […]: 2.5 mins; for Kp at 10 min: CONTROL
Procedure: All animals used in procedures were adult male BALB/c mice (between 23 g and 25 g) sourced from Harlan Laboratories, Oxon, UK, unless otherwise stated.
Animals were weighed immediately before the administration of the anaesthetic to ensure correct dosage. Domitor® (medetomidine hydrochloride) and Vetalar® (ketamine) were both purchased from Harlan Laboratories (Cambridge, UK). All animals were terminally anaesthetised (2 mg/kg Domitor® and 150 mg/kg Vetalar® injected intraperitoneally), and a lack of self-righting and paw-withdrawal reflexes (as surrogate indicators of consciousness) thoroughly checked prior to and during all procedures. If needed, additional anaesthetic was administered via the same route. […] At the end of the in situ brain perfusion procedure the animal was killed by decapitated under non-recovery anaesthesia. Animals were heparinised with 100 units heparin (in 0.9% m/v NaCl(aq), Harlan Laboratories; Oxon, UK), administered via the intraperitoneal route prior to surgery.
The in situ brain/choroid plexus perfusion method is designed to directly perfuse the brain with artificial plasma via a cannula placed in the heart. Artificial plasma is prepared to mimic the ionic composition of blood, and transporter inhibitors can be added in known concentrations and delivered to the brain for defined periods of time.
The left ventricle of the heart was cannulated with a 25G x 10 mm butterfly-winged needle connected to the perfusion circuit. […] The right atrium of the heart was sectioned to allow outflow of the artificial plasma. […] Radiolabelled and unlabelled test molecules were infused into the inflowing artificial plasma for periods up to 30 minutes.
At the set perfusion time a CSF sample was taken by inserting a pulled glass micropipette connected to silicon tubing and a syringe into the cisterna magna. Gentle suction was applied, and CSF was withdrawn. Only clear CSF samples were processed and taken for analysis. Samples contaminated with blood were discarded. The animal was then decapitated and the brain removed. Specific brain samples including the circumventricular organs (CVOs) were taken using a Leica S4E L2 stereomicroscope (Leica; Buckinghamshire, UK). The brain samples included the frontal cortex, caudate nucleus, occipital cortex, hippocampus, hypothalamus, thalamus, pons and cerebellum. The CVOs included the choroid plexus, pituitary gland and pineal gland.
All samples (brain regions, capillary depletion brain homogenate, pellet and supernatant, CVOs, CSF and plasma samples) were solubilised in 0.5 mL tissue solubiliser (Solvable; Perkin-Elmer; Boston, MA, USA). After incubating the samples at room temperature for 48 h, 4 mL scintillation fluid (Lumasafe®; Perkin-Elmer; Boston, MA, USA) was added to each before vigorous vortexing.

[2] = cross-inhibition, in situ perfusion: [^3H]-ADMA with 100 μM unlabelled L-arginine; assay type: in vivo, mouse; design: uptake into choroid plexus / uptake into frontal cortex / uptake into caudate nucleus / uptake into occipital cortex / uptake into hippocampus / uptake into hypothalamus / uptake into thalamus / uptake into cerebellum: unit not given here; conditions: male, Balb/c, mouse, other: in situ brain perfusion, with 100 µM unlabelled L-arginine, 10 mins, Balb/c ♂, 5ml/min
Procedure: (§1) Self-inhibition experiments were also performed. […] Cross-competition experiments were also performed.
(§2) The percentage change in the RTissue uptake values achieved in the absence or presence of an unlabelled inhibitor can be calculated by means of Eq 4.
(§3) %change=RTissue−RInhibition/RTissue×100 Eq 4
(§4) We define RInhibition as the RTissue uptake in the presence of an inhibitor in the artificial plasma.
(§5) A decrease in the uptake of radiolabelled solute in the presence of unlabelled inhibitor is indicative of a saturable influx transport system. Conversely, an increase in the uptake of radiolabelled solute in the presence of unlabelled inhibitor is indicative of a saturable efflux transport system.

[3] = test system: [^3H]-ADMA transport across the blood-brain and blood-CSF barriers; assay: as above; assay type: in vivo, mouse; design: uptake into choroid plexus / uptake into frontal cortex / uptake into caudate nucleus / uptake into occipital cortex / uptake into hippocampus / uptake into hypothalamus / uptake into thalamus / uptake into cerebellum: unit not given here; conditions: [3H] ADMA + [14C] Sucrose + 100uM Arg, 10 mins, Balb/c ♂, 5ml/min; individual mice
Procedure: as §1, §2, §3, §4, §5

[4] = test system: [3H]-ADMA transport across the blood-brain and blood-CSF barriers; assay: as above; assay type: in vivo, mouse; design: uptake into choroid plexus / uptake into frontal cortex / uptake into caudate nucleus / uptake into occipital cortex / uptake into hippocampus / uptake into hypothalamus / uptake into thalamus / uptake into cerebellum: unit not given here; conditions: male, Balb/c, mouse, other: in situ brain perfusion, 10 mins, Balb/c ♂, 5ml/min
Procedure: as §1, §2, §3, §4, §5

[5] = frontal cortex, [3H] ADMA and [14C] Sucrose uptake, mean
[6] = hippocampus, Difference (ADMA minus Sucrose), mean
[7] = hippocampus, [3H] ADMA and [14C] Sucrose uptake, mean
[8] = hypothalamus, Difference (ADMA minus Sucrose), mean
[9] = hypothalamus, [3H] ADMA and [14C] Sucrose uptake, individual mouse
[10] = hypothalamus, [3H] ADMA and [14C] Sucrose uptake, mean
[11] = occipital cortex, Difference (ADMA minus Sucrose), mean
[12] = occipital cortex, [3H] ADMA and [14C] Sucrose uptake, mean
[13] = pineal gland, Difference (ADMA minus Sucrose), mean
[14] = pineal gland, [3H] ADMA and [14C] Sucrose uptake, mean
[15] = pituitary gland, Difference (ADMA minus Sucrose), mean
[16] = pituitary gland, [3H] ADMA and [14C] Sucrose uptake, mean
[17] = pons, Difference (ADMA minus Sucrose), mean
[18] = pons, [3H] ADMA and [14C] Sucrose uptake, mean
[19] = thalamus, Difference (ADMA minus Sucrose), mean
[20] = thalamus, [3H] ADMA and [14C] Sucrose uptake, individual mouse
[21] = thalamus, [3H] ADMA and [14C] Sucrose uptake, mean

## CN(C)C(N)=NCCC[C@H](N)C(=O)O [ADMA, N^G,N^G-dimethylarginine dihydrochloride]
[1]; frontal cortex, [3H] ADMA and [14C] Sucrose uptake, individual mouse
  Kp at […], 62.5 nM: 0.0847
[1]; [5]
  Kp at […], 62.5 nM: 0.113
  Kp at 20 min, 62.5 nM: 0.302
[1]; hippocampus, Difference (ADMA minus Sucrose), individual mouse
  Kp at […], 62.5 nM: 0.0843
[1]; [6]
  Kp at […], 62.5 nM: 0.1
  Kp at 20 min, 62.5 nM: 0.254
[1]; hippocampus, [3H] ADMA and [14C] Sucrose uptake, individual mouse
  Kp at […], 62.5 nM: 0.0898
[1]; [7]
  Kp at […], 62.5 nM: 0.109
  Kp at 20 min, 62.5 nM: 0.273
[1]; hypothalamus, Difference (ADMA minus Sucrose), individual mouse
  Kp at […]: 0.0965
[1]; [8]
  Kp at […]: 0.0993
  Kp at 20 min, 62.5 nM: 0.364
[1]; [9]
  Kp at […]: 0.114
  Kp at 20 min, 62.5 nM: 0.38
[1]; [10]
  Kp at […]: 0.127
  Kp at 20 min, 62.5 nM: 0.416
[1]; occipital cortex, Difference (ADMA minus Sucrose), individual mouse
  Kp at […], 62.5 nM: 0.0744
[1]; [11]
  Kp at […], 62.5 nM: 0.086
  Kp at 20 min, 62.5 nM: 0.268
[1]; occipital cortex, [3H] ADMA and [14C] Sucrose uptake, individual mouse
  Kp at […], 62.5 nM: 0.083
[1]; [12]
  Kp at […], 62.5 nM: 0.0969
  Kp at 20 min, 62.5 nM: 0.293
[1]; [13]
  Kp at […], 62.5 nM: 0.235
  Kp at 20 min, 62.5 nM: 0.986
  Kp at 30 min, 62.5 nM: 0.416
  Kp at 10 min: 1.94
[1]; [14]
  Kp at […], 62.5 nM: 0.527
  Kp at 20 min, 62.5 nM: 1.32
  Kp at 10 min: 2.56
[1]; pineal gland, uptake into pineal gland, [3H] ADMA + [14C] Sucrose, Balb/c ♂, mean
  Kp at 30 min, 62.5 nM: 0.614
[1]; [15]
  Kp at […]: 0.585
  Kp at 20 min, 62.5 nM: 1.19
[1]; [16]
  Kp at […]: 0.761
  Kp at 20 min, 62.5 nM: 1.4
[1]; [17]
  Kp at […]: 0.0907
  Kp at 20 min, 62.5 nM: 0.306
[1]; pons, [3H] ADMA and [14C] Sucrose uptake, individual mouse
  Kp at […]: 0.0924
[1]; [18]
  Kp at […]: 0.117
  Kp at 20 min, 62.5 nM: 0.347
[1]; thalamus, Difference (ADMA minus Sucrose), individual mouse
  Kp at […]: 0.0741
[1]; [19]
  Kp at […]: 0.0969
  Kp at 20 min, 62.5 nM: 0.282
[1]; [20]
  Kp at […]: 0.0799
  Kp at 20 min, 62.5 nM: 0.331
[1]; [21]
  Kp at […]: 0.108
  Kp at 20 min, 62.5 nM: 0.312
[1]; multiple-time uptake studies, loss of linearity
  CNS-to-blood efflux: presence of CNS-to-blood efflux
[2]; CSF, [3H] ADMA + [14C] Sucrose + 100uM Arg, mean, read-out: uptake into CSF
  Kp at 10 min, 62.5 nM: 0.162
[2]; brain homogenate, Difference (ADMA minus Sucrose), homogenate, + 100uM Arg, mean
  Kp at 10 min, 62.5 nM: 0.0265
[2]; brain homogenate, [3H] ADMA + [14C] Sucrose + 100uM Arg, mean, read-out: uptake, homogenate
  Kp at 10 min, 62.5 nM: 0.063
[2]; pellet, Difference (ADMA minus Sucrose), pellet, + 100uM Arg, individual mice
  Kp at 10 min, 62.5 nM: 0.00309
[2]; pellet, [3H] ADMA + [14C] Sucrose + 100uM Arg, mean, read-out: uptake, pellet
  Kp at 10 min, 62.5 nM: 0.011
[2]; supernatant, Difference (ADMA minus Sucrose), supernatant, + 100uM Arg, mean
  Kp at 10 min, 62.5 nM: 0.0204
[2]; supernatant, [3H] ADMA + [14C] Sucrose + 100uM Arg, mean, read-out: uptake, supernatant
  Kp at 10 min, 62.5 nM: 0.0475
[3]
  uptake into caudate nucleus: 0.06709 and 0.08883 and 0.04583 and 0.07378
  uptake into cerebellum: 0.04812 and 0.06526 and 0.1041 and 0.02606 and 0.09306
  uptake into choroid plexus: 0.5896 and 0.666 and 0.4457 and 0.7681
  uptake into frontal cortex: 0.07007 and 0.07553 and 0.1227 and 0.05236 and 0.1082
  uptake into hippocampus: 0.04437 and 0.05436 and 0.09956 and 0.03726 and 0.0687
  uptake into hypothalamus: 0.1376 and 0.1261 and 0.09757 and 0.08557
  uptake into occipital cortex: 0.04352 and 0.05773 and 0.1002 and 0.05331 and 0.07955
  uptake into pituitary gland: 0.3174 and 0.8724 and 1.123 and 0.09502 and 0.5936
  uptake into pons: 0.0747 and 0.145 and 0.1344 and 0.05028 and 0.06842
  uptake into thalamus: 0.04368 and 0.06682 and 0.145 and 0.05879 and 0.08201
[4]; caudate nucleus, with 100 µM unlabelled L-arginine, Difference (ADMA minus Sucrose), caudate nucleus, + 100uM Arg, mean
  Kp at 10 min, 62.5 nM: 0.0481
[4]; caudate nucleus, with 100 µM unlabelled L-arginine, [3H] ADMA + [14C] Sucrose + 100uM Arg, individual mice, read-out: uptake into caudate nucleus
  Kp at 10 min, 62.5 nM: 0.0565
[4]; caudate nucleus, with 100 µM unlabelled L-arginine, [3H] ADMA + [14C] Sucrose + 100uM Arg, mean, read-out: uptake into caudate nucleus
  Kp at 10 min, 62.5 nM: 0.0664
[4]; cerebellum, with 100 µM unlabelled L-arginine, Difference (ADMA minus Sucrose), cerebellum, + 100uM Arg, mean
  Kp at 10 min, 62.5 nM: 0.0445
[4]; cerebellum, with 100 µM unlabelled L-arginine, [3H] ADMA + [14C] Sucrose + 100uM Arg, mean, read-out: uptake into cerebellum
  Kp at 10 min, 62.5 nM: 0.0673
[4]; choroid plexus, with 100 µM unlabelled L-arginine, Difference (ADMA minus Sucrose), choroid plexus, + 100uM Arg, individual mice
  Kp at 10 min, 62.5 nM: 0.469
[4]; choroid plexus, with 100 µM unlabelled L-arginine, Difference (ADMA minus Sucrose), choroid plexus, + 100uM Arg, mean
  Kp at 10 min, 62.5 nM: 0.471
[4]; choroid plexus, with 100 µM unlabelled L-arginine, [3H] ADMA + [14C] Sucrose + 100uM Arg, individual mice, read-out: uptake into choroid plexus
  Kp at 10 min, 62.5 nM: 0.609
[4]; choroid plexus, with 100 µM unlabelled L-arginine, [3H] ADMA + [14C] Sucrose + 100uM Arg, mean, read-out: uptake into choroid plexus
  Kp at 10 min, 62.5 nM: 0.616
[4]; frontal cortex, with 100 µM unlabelled L-arginine, Difference (ADMA minus Sucrose), frontal cortex, + 100uM Arg, mean
  Kp at 10 min, 62.5 nM: 0.0598
[4]; frontal cortex, with 100 µM unlabelled L-arginine, [3H] ADMA + [14C] Sucrose + 100uM Arg, mean, read-out: uptake into frontal cortex
  Kp at 10 min, 62.5 nM: 0.0858
[4]; hippocampus, with 100 µM unlabelled L-arginine, Difference (ADMA minus Sucrose), hippocampus, + 100uM Arg, mean
  Kp at 10 min, 62.5 nM: 0.0475
[4]; hippocampus, with 100 µM unlabelled L-arginine, [3H] ADMA + [14C] Sucrose + 100uM Arg, mean, read-out: uptake into hippocampus
  Kp at 10 min, 62.5 nM: 0.0608
[4]; hypothalamus, with 100 µM unlabelled L-arginine, Difference (ADMA minus Sucrose), hypothalamus, + 100uM Arg, individual mice
  Kp at 10 min, 62.5 nM: 0.0699
[4]; hypothalamus, with 100 µM unlabelled L-arginine, Difference (ADMA minus Sucrose), hypothalamus, + 100uM Arg, mean
  Kp at 10 min, 62.5 nM: 0.0777
[4]; hypothalamus, with 100 µM unlabelled L-arginine, [3H] ADMA + [14C] Sucrose + 100uM Arg, individual mice, read-out: uptake into hypothalamus
  Kp at 10 min, 62.5 nM: 0.105
[4]; hypothalamus, with 100 µM unlabelled L-arginine, [3H] ADMA + [14C] Sucrose + 100uM Arg, mean, read-out: uptake into hypothalamus
  Kp at 10 min, 62.5 nM: 0.11
[4]; occipital cortex, with 100 µM unlabelled L-arginine, Difference (ADMA minus Sucrose), occipital cortex, + 100uM Arg, mean
  Kp at 10 min, 62.5 nM: 0.048
[4]; occipital cortex, with 100 µM unlabelled L-arginine, [3H] ADMA + [14C] Sucrose + 100uM Arg, mean, read-out: uptake into occipital cortex
  Kp at 10 min, 62.5 nM: 0.0669
[4]; pineal gland, with unlabelled L-arginine 100 µM, Difference (ADMA minus Sucrose), pineal gland, + 100uM Arg, mean
  Kp at 10 min, 62.5 nM: 0.613
[4]; pineal gland, with unlabelled L-arginine 100 µM, [3H] ADMA + [14C] Sucrose + 100uM Arg, mean, read-out: uptake into pineal gland
  Kp at 10 min, 62.5 nM: 0.915
[4]; pituitary gland, with 100 µM unlabelled L-arginine, Difference (ADMA minus Sucrose), pituitary gland, + 100uM Arg, mean
  Kp at 10 min, 62.5 nM: 0.487
[4]; pituitary gland, with 100 µM unlabelled L-arginine, [3H] ADMA + [14C] Sucrose + 100uM Arg, mean, read-out: uptake into pituitary gland
  Kp at 10 min, 62.5 nM: 0.6
[4]; pons, with 100 µM unlabelled L-arginine, Difference (ADMA minus Sucrose), pons, + 100uM Arg, mean
  Kp at 10 min, 62.5 nM: 0.0483
[4]; pons, with 100 µM unlabelled L-arginine, [3H] ADMA + [14C] Sucrose + 100uM Arg, mean, read-out: uptake into pons
  Kp at 10 min, 62.5 nM: 0.0946
[4]; thalamus, with 100 µM unlabelled L-arginine, Difference (ADMA minus Sucrose), thalamus, + 100uM Arg, mean
  Kp at 10 min, 62.5 nM: 0.0566
[4]; thalamus, with 100 µM unlabelled L-arginine, [3H] ADMA + [14C] Sucrose + 100uM Arg, mean, read-out: uptake into thalamus
  Kp at 10 min, 62.5 nM: 0.0793
